Assays:
[1] = biological target: T1, tryptophan synthetase (TS) of wild strain AJ 12036 (Corynebacterium glutamicum, UniProt P06561); test: TS (TSB) activity of crude enzyme solution of wild strain AJ 12036 with added L-tryptophan; format: biochemical; settings: strain AJ 12036 crude enzyme, 20 mM L-Tryptophan added
T1 construct: that of the wild strain (AJ 12036); endogenous in cells; host or cells: wild strain AJ 12036 (FERM-P7559, FERM-BP 734), crude sonicate supernatant
T1 sequence (P06561 1-417): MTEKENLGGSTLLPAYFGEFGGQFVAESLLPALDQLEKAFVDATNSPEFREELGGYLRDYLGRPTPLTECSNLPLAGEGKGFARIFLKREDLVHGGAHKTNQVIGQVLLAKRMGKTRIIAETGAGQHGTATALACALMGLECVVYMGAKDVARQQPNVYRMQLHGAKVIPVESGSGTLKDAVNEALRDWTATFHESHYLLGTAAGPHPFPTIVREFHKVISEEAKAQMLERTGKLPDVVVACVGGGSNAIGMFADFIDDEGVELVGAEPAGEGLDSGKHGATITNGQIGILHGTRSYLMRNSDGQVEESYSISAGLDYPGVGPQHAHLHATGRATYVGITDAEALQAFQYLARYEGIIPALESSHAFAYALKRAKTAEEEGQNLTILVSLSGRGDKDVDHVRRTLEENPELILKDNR
T1 sequence (P06562 1-280 partner): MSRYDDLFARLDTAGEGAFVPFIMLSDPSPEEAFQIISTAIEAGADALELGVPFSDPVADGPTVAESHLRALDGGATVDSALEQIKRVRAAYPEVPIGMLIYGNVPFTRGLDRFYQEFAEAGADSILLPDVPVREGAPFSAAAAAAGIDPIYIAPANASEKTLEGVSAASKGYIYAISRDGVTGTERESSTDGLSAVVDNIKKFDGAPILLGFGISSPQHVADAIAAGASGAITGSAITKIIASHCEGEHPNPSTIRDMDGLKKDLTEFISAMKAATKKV
Method: (§1) A specimen strain was cultured in 20 ml of medium for L-tryptophan production (described hereinafter). From the cultured cells, a lysate was prepared by an ultrasonic wave treatment and centrifuged at 32,000×gfor 30 minutes to obtain the supernatant. The supernatant was used as a crude enzyme solution. Using an enzyme reaction solution (1 ml in total amount) consisting of 100 mM tris hydrochloride buffer (pH 7.8), 0.4 mM indole, 30 mM L-serine, 40 μm pyridoxal-5'-phosphate and 180 mM sodium chloride, TSB activity was measured. The reaction was carried out at 30° C. for 30 minutes, 0.1 ml of 1N NaOH was added, the remaining indole was extracted with toluene, color was then formed by an indole reagent and then the color was measured by a spectrophotometer (at […]).

[2] = biological target: T2, tryptophan synthetase (TS) of transformant AJ 12139 (Corynebacterium glutamicum, UniProt P06561); test: TS (TSB) activity of crude enzyme solution of transformant AJ 12139 with added L-tryptophan; format: biochemical, Brevibacterium lactofermentum
T2 construct: plasmid pAJ 319 (pAJ 1844 vector) carrying trpA and trpB of AJ 12030, in TSA-deficient host No. 21
Method: as §1

## N[C@@H](Cc1c[nH]c2ccccc12)C(=O)O [L-Tryptophan, L-tryptophan]
[1]; 0.5 h, read-out: TS activity, relative value in parentheses (0 mM = 100)
  activity at 20000 µM: 65%
[1]; 30° C., 30 minutes, 0 mM control 7.1
  TS activity (amount of decreased indole in mole/min/mg amount of protein): 4.6 mole/min/mg amount of protein
[2]; in the presence of 20 mM L-tryptophan
  inhibition of TS activity of the transformant (in words): inhibited only slightly
[2]; strain AJ 12139 crude enzyme, 20 mM L-Tryptophan added, 30° C., 30 minutes, 0 mM control 81.0
  TS activity (amount of decreased indole in mole/min/mg amount of protein): 66.4 mole/min/mg amount of protein
[2]; strain AJ 12139 crude enzyme, 20 mM L-Tryptophan added, 30 min
  TS activity, relative value in parentheses (0 mM = 100): 82
